{
  "source": "the kinase profiling compilation of Christmann-Franck et al. (2016)",
  "assay_in_all_cases": "radiometric filter-binding kinase assay, Kinase HotSpot",
  "settings_in_all_cases": "compound 0.5 µM; ATP 10 µM",
  "key": {"[1]": {"biological_target": "PRKD3 (human) (UniProt O94806)", "sequence (O94806 whole entry, looked up)": "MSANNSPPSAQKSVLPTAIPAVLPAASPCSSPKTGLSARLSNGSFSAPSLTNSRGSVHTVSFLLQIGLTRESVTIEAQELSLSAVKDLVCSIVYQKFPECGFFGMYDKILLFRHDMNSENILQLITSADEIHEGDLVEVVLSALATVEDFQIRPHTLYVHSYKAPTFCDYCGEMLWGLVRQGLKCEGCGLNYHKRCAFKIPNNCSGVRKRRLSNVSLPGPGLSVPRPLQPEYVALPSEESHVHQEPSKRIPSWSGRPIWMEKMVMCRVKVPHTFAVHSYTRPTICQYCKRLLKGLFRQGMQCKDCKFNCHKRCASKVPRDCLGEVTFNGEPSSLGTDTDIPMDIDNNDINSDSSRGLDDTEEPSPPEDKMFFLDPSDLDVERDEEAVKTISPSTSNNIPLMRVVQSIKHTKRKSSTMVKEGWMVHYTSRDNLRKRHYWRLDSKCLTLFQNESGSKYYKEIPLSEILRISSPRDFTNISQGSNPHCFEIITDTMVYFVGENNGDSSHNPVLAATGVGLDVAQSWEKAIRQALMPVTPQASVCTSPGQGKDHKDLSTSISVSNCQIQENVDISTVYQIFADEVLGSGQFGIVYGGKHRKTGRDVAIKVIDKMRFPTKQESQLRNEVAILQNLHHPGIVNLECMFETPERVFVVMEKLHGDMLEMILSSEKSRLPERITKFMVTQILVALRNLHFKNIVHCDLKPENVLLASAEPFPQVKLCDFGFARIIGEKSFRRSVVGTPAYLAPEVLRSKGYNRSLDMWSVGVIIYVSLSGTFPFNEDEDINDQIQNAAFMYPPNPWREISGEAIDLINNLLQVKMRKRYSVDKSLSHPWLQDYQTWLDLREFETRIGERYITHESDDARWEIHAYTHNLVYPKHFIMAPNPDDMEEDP"}, "[2]": {"biological_target": "ERBB4 (human) (UniProt Q15303)"}, "[3]": {"biological_target": "AURKB (human) (UniProt Q96GD4)", "sequence (Q96GD4 whole entry, looked up)": "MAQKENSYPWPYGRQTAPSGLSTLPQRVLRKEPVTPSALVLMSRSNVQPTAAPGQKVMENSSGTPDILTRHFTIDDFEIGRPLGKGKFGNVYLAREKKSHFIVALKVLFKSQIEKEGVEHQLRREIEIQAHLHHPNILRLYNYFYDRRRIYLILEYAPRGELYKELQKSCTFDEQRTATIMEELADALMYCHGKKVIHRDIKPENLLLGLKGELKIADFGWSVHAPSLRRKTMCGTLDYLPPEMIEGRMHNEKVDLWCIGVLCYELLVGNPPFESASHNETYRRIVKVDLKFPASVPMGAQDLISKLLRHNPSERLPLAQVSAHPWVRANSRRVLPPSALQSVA"}, "[4]": {"biological_target": "MKNK2 (human) (UniProt Q9HBH9)"}, "[5]": {"biological_target": "ACVR1B (human) (UniProt P36896)"}, "[6]": {"biological_target": "CHEK1 (human) (UniProt O14757)"}, "[7]": {"biological_target": "STK39 (human) (UniProt Q9UEW8)"}, "[8]": {"biological_target": "MST4 (human) (UniProt Q9P289)"}, "[9]": {"biological_target": "ROS1 (human) (UniProt P08922)"}, "[10]": {"biological_target": "EPHA3 (human) (UniProt P29320)"}, "[11]": {"biological_target": "PRKX (human) (UniProt P51817)"}, "[12]": {"biological_target": "EPHB3 (human) (UniProt P54753)"}, "[13]": {"biological_target": "PRKCG (human) (UniProt P05129)"}, "[14]": {"biological_target": "MYLK (human) (UniProt Q15746)", "sequence (Q15746 whole entry, looked up)": "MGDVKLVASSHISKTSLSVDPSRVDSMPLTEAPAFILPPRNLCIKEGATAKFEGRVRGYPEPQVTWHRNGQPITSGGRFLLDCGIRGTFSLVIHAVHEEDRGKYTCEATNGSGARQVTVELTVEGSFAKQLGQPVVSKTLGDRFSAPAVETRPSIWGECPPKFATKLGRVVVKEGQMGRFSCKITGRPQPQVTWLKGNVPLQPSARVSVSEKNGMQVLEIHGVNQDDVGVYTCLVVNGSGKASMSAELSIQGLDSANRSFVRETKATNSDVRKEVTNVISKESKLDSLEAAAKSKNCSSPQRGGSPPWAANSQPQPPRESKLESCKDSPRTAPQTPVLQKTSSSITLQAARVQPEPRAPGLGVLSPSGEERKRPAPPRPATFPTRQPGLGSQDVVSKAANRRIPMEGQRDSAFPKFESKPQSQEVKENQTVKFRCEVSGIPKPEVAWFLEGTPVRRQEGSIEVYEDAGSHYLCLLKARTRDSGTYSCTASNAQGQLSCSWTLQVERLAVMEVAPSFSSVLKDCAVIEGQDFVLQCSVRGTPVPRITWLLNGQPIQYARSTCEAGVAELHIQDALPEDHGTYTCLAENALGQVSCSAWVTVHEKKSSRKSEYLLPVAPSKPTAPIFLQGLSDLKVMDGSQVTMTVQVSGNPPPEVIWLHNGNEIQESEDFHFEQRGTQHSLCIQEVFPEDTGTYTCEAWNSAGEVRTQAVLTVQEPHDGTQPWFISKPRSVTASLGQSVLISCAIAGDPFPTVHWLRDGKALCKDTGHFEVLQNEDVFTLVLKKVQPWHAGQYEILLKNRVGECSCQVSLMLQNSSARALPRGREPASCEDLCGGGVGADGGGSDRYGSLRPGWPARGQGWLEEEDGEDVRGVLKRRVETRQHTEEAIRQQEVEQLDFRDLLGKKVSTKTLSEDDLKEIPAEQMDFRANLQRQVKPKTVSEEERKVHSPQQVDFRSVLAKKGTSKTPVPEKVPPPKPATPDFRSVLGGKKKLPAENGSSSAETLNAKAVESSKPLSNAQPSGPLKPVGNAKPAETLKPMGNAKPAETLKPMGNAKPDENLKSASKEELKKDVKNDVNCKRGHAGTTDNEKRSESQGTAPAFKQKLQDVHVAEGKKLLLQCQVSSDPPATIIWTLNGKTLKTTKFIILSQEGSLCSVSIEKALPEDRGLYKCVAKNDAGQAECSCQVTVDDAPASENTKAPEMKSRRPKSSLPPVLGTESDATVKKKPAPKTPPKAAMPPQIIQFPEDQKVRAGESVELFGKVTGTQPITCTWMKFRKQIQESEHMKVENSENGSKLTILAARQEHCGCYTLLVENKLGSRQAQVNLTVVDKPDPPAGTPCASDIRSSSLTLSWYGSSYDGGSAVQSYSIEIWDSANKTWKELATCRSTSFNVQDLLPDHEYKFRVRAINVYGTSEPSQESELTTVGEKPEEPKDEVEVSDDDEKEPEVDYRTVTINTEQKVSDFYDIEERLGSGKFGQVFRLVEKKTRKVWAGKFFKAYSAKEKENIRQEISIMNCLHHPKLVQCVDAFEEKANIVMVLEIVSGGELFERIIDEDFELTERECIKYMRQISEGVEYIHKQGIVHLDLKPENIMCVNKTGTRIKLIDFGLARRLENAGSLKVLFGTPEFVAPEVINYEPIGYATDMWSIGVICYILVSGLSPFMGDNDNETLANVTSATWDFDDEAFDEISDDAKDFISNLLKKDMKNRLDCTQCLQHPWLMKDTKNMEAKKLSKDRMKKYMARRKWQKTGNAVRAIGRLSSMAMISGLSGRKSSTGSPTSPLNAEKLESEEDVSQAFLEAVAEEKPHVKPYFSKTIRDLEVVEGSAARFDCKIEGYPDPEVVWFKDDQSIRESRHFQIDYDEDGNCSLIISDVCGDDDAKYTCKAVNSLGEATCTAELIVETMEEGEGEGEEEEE"}, "[15]": {"biological_target": "PAK7 (human) (UniProt Q9P286)"}, "[16]": {"biological_target": "CAMK1G (human) (UniProt Q96NX5)"}, "[17]": {"biological_target": "MARK1 (human) (UniProt Q9P0L2)"}, "[18]": {"biological_target": "NEK1 (human) (UniProt Q96PY6)"}, "[19]": {"biological_target": "DAPK3 (human) (UniProt O43293)", "sequence (O43293 whole entry, looked up)": "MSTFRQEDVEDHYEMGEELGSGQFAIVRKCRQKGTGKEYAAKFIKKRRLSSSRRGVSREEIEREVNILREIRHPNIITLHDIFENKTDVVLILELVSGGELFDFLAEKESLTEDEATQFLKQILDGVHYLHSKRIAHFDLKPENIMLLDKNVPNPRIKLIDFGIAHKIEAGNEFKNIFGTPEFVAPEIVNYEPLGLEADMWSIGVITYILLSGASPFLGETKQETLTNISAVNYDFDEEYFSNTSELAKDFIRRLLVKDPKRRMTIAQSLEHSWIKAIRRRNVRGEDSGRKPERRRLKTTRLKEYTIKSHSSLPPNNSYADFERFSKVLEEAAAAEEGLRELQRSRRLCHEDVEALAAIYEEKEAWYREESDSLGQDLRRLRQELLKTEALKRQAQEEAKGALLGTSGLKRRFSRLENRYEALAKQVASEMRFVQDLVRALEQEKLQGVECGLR"}, "[20]": {"biological_target": "PRKCA (human) (UniProt P17252)"}, "[21]": {"biological_target": "SGK3 (human) (UniProt Q96BR1)"}, "[22]": {"biological_target": "MLTK (human) (UniProt Q9NYL2)"}, "[23]": {"biological_target": "YES1 (human) (UniProt P07947)"}, "[24]": {"biological_target": "WEE1 (human) (UniProt P30291)"}, "[25]": {"biological_target": "SIK2 (human) (UniProt Q9H0K1)", "sequence (Q9H0K1 whole entry, looked up)": "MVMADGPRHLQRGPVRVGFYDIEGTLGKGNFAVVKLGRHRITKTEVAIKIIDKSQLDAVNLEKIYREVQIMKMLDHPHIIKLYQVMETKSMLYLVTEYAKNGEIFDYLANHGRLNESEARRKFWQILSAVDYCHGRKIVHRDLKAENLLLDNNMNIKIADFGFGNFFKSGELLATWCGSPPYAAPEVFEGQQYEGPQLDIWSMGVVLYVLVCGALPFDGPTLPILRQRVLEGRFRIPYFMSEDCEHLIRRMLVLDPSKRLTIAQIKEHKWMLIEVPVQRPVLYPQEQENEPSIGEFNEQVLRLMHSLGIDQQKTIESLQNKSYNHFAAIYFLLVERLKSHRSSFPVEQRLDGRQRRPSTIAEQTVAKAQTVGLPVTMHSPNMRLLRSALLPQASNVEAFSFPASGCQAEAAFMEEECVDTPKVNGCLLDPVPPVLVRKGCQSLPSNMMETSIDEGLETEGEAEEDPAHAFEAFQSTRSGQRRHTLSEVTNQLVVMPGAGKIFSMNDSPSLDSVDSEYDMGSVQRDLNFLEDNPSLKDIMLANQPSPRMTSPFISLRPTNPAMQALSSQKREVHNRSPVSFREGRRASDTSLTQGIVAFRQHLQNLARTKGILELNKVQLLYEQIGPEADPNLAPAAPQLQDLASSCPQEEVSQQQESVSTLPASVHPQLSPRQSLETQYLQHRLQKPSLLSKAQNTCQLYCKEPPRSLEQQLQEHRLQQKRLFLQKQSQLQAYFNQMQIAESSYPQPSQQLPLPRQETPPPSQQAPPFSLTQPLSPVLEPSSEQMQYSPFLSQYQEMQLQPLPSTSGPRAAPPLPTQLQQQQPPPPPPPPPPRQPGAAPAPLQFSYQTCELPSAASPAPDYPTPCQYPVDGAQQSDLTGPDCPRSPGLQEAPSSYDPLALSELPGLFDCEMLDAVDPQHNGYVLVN"}, "[26]": {"biological_target": "FGFR2 (human) (UniProt P21802)"}, "[27]": {"biological_target": "STK4 (human) (UniProt Q13043)"}, "[28]": {"biological_target": "TAOK1 (human) (UniProt Q7L7X3)"}, "[29]": {"biological_target": "PIM2 (human) (UniProt Q9P1W9)"}, "[30]": {"biological_target": "CDK4 CCND3 (human) (UniProt P30281+P11802)"}, "[31]": {"biological_target": "MAPK12 (human) (UniProt P53778)"}, "[32]": {"biological_target": "NLK (human) (UniProt Q9UBE8)", "sequence (Q9UBE8 whole entry, looked up)": "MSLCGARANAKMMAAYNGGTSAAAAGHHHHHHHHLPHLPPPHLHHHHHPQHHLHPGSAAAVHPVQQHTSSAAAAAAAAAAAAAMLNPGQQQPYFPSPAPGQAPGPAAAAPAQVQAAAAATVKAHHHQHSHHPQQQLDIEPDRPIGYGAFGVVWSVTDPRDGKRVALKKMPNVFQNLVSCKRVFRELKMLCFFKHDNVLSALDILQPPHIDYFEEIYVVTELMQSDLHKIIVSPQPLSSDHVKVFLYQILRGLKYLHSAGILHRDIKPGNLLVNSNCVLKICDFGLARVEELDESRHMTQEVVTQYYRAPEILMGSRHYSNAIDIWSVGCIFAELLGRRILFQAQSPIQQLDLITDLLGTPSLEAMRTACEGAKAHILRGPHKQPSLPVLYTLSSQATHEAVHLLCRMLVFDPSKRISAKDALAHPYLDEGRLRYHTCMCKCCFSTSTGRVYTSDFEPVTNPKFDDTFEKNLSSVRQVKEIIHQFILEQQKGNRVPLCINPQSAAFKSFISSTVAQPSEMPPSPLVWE"}, "[33]": {"biological_target": "CLK4 (human) (UniProt Q9HAZ1)"}, "[34]": {"biological_target": "IRAK4 (human) (UniProt Q9NWZ3)"}, "[35]": {"biological_target": "CAMK2D (human) (UniProt Q13557)"}, "[36]": {"biological_target": "CDK9 CCNT1 (human) (UniProt P50750+O60563)"}, "[37]": {"biological_target": "NEK2 (human) (UniProt P51955)"}, "[38]": {"biological_target": "PLK3 (human) (UniProt Q9H4B4)"}, "[39]": {"biological_target": "MST1R (human) (UniProt Q04912)"}, "[40]": {"biological_target": "EPHB4 (human) (UniProt P54760)"}, "[41]": {"biological_target": "HCK (human) (UniProt P08631)"}, "[42]": {"biological_target": "TGFBR1 (human) (UniProt P36897)"}},
  "data": [
    {"smiles": "O=C1NC(=O)/C(=C\\c2ccc3nccnc3c2)S1", "values": [
      {"measurement": "residual activity", "setting": "[1]", "value": 94.7, "unit": "%"},
      {"measurement": "residual activity", "setting": "[2]", "value": 99.4, "unit": "%"},
      {"measurement": "residual activity", "setting": "[3]", "value": 101, "unit": "%"},
      {"measurement": "residual activity", "setting": "[4]", "value": 98.2, "unit": "%"},
      {"measurement": "residual activity", "setting": "[5]", "value": 109, "unit": "%"},
      {"measurement": "residual activity", "setting": "[6]", "value": 99.4, "unit": "%"},
      {"measurement": "residual activity", "setting": "[7]", "value": 104, "unit": "%"},
      {"measurement": "residual activity", "setting": "[8]", "value": 91, "unit": "%"},
      {"measurement": "residual activity", "setting": "[9]", "value": 92.3, "unit": "%"},
      {"measurement": "residual activity", "setting": "[10]", "value": 97.1, "unit": "%"},
      {"measurement": "residual activity", "setting": "[11]", "value": 89.2, "unit": "%"},
      {"measurement": "residual activity", "setting": "[12]", "value": 94.5, "unit": "%"},
      {"measurement": "residual activity", "setting": "[13]", "value": 105, "unit": "%"},
      {"measurement": "residual activity", "setting": "[14]", "value": 97.1, "unit": "%"},
      {"measurement": "residual activity", "setting": "[15]", "value": 97.4, "unit": "%"},
      {"measurement": "residual activity", "setting": "[16]", "value": 105, "unit": "%"},
      {"measurement": "residual activity", "setting": "[17]", "value": 96.2, "unit": "%"},
      {"measurement": "residual activity", "setting": "[18]", "value": 73.6, "unit": "%"},
      {"measurement": "residual activity", "setting": "[19]", "value": 93.3, "unit": "%"},
      {"measurement": "residual activity", "setting": "[20]", "value": 102, "unit": "%"},
      {"measurement": "residual activity", "setting": "[21]", "value": 94.3, "unit": "%"},
      {"measurement": "residual activity", "setting": "[22]", "value": 93.6, "unit": "%"},
      {"measurement": "residual activity", "setting": "[23]", "value": 89.3, "unit": "%"},
      {"measurement": "residual activity", "setting": "[24]", "value": 83.1, "unit": "%"},
      {"measurement": "residual activity", "setting": "[25]", "value": 102, "unit": "%"},
      {"measurement": "residual activity", "setting": "[26]", "value": 95, "unit": "%"},
      {"measurement": "residual activity", "setting": "[27]", "value": 95, "unit": "%"},
      {"measurement": "residual activity", "setting": "[28]", "value": 82.8, "unit": "%"},
      {"measurement": "residual activity", "setting": "[29]", "value": 100, "unit": "%"},
      {"measurement": "residual activity", "setting": "[30]", "value": 93.9, "unit": "%"},
      {"measurement": "residual activity", "setting": "[31]", "value": 96.6, "unit": "%"},
      {"measurement": "residual activity", "setting": "[32]", "value": 92.4, "unit": "%"},
      {"measurement": "residual activity", "setting": "[33]", "value": 47.5, "unit": "%"},
      {"measurement": "residual activity", "setting": "[34]", "value": 99.9, "unit": "%"},
      {"measurement": "residual activity", "setting": "[35]", "value": 93.7, "unit": "%"},
      {"measurement": "residual activity", "setting": "[36]", "value": 87.7, "unit": "%"},
      {"measurement": "residual activity", "setting": "[37]", "value": 92.2, "unit": "%"},
      {"measurement": "residual activity", "setting": "[38]", "value": 97.7, "unit": "%"},
      {"measurement": "residual activity", "setting": "[39]", "value": 97.8, "unit": "%"},
      {"measurement": "residual activity", "setting": "[40]", "value": 101, "unit": "%"},
      {"measurement": "residual activity", "setting": "[41]", "value": 92.2, "unit": "%"},
      {"measurement": "residual activity", "setting": "[42]", "value": 98.5, "unit": "%"}
    ]}
  ]
}
